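Five concentrations, 48 hours, 96-well plates. GI50: concentration for 50% inhibition of growth.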 Activity calls are given as the source filed them. Rule as the data show it: active = GI50 up to about 1.1 µM and inactive = higher.
Legend:
Assay in all cases: NCI-60 cell line screen, 48 h
RXF 393 = tested on: RXF 393
OVCAR-5 = tested on: OVCAR-5
RPMI-8226 = tested on: RPMI-8226
UACC-257 = tested on: UACC-257
ACHN = tested on: ACHN
DLD-1 = tested on: DLD-1
SNB-19 = tested on: SNB-19
SNB-78 = tested on: SNB-78
TK-10 = tested on: TK-10
HT-29 = tested on: HT-29
A549 = tested on: A549
SK-MEL-2 = tested on: SK-MEL-2
HOP-62 = tested on: HOP-62
KM-20L2 = tested on: KM-20L2
K562 = tested on: K562
SNB-75 = tested on: SNB-75
A498 = tested on: A498
OVCAR-8 = tested on: OVCAR-8
T47D = tested on: T47D
HCT-116 = tested on: HCT-116
NCI-H226 = tested on: NCI-H226
DU-145 = tested on: DU-145
CCRF-CEM = tested on: CCRF-CEM
786-0 = tested on: 786-0
HCT-15 = tested on: HCT-15
CAKI-1 = tested on: CAKI-1
M14 = tested on: M14
UACC-62 = tested on: UACC-62
NCI-H460 = tested on: NCI-H460
COLO 205 = tested on: COLO 205
SF-539 = tested on: SF-539
HOP-18 = tested on: HOP-18
HCC 2998 = tested on: HCC 2998
MOLT-4 = tested on: MOLT-4
SF-268 = tested on: SF-268
SN12C = tested on: SN12C
M19-MEL = tested on: M19-MEL
SK-MEL-5 = tested on: SK-MEL-5
SR = tested on: SR
NCI/ADR-RES = tested on: NCI/ADR-RES
MCF7 = tested on: MCF7
MDA-MB-435 = tested on: MDA-MB-435
XF498 = tested on: XF498
KM12 = tested on: KM12
IGROV-1 = tested on: IGROV-1
OVCAR-3 = tested on: OVCAR-3
DMS-273 = tested on: DMS-273
EKVX = tested on: EKVX
SW-620 = tested on: SW-620
HOP-92 = tested on: HOP-92
NCI-H23 = tested on: NCI-H23
SK-OV-3 = tested on: SK-OV-3
BT-549 = tested on: BT-549
U-251 = tested on: U-251
LOX IMVI = tested on: LOX IMVI
DMS-114 = tested on: DMS-114
PC-3 = tested on: PC-3
Malme-3M = tested on: Malme-3M
Hs-578T = tested on: Hs-578T
NCI-H522 = tested on: NCI-H522
SK-MEL-28 = tested on: SK-MEL-28
OVCAR-4 = tested on: OVCAR-4
UO-31 = tested on: UO-31
HL-60 = tested on: HL-60
SF-295 = tested on: SF-295
LXFL 529 = tested on: LXFL 529

Question: `C[S+](C)C1(c2ccccc2)C(=O)c2ccccc2C1=O` was tested. Which GI50 (RXF 393) did it give?
Answer: 33.3 µM (inactive)

Question: What about the GI50 (OVCAR-5) of the same molecule?
Answer: > 49.3 µM (inactive)

Question: And the GI50 (RPMI-8226)?
Answer: > 62.1 µM (inactive)

Question: And the GI50 (UACC-257)?
Answer: > 64.9 µM (inactive)

Question: What about the GI50 (ACHN) of the same molecule?
Answer: > 65.6 µM (inactive)

Question: And the GI50 (DLD-1)?
Answer: > 100 µM (inactive)

Question: And the GI50 (SNB-19)?
Answer: 39 µM (inactive)

Question: And the GI50 (SNB-78)?
Answer: > 100 µM (inactive)

Question: What about the GI50 (TK-10) of the same molecule?
Answer: > 100 µM (inactive)

Question: And the GI50 (HT-29)?
Answer: > 100 µM (inactive)

Question: What about the GI50 (A549) of the same molecule?
Answer: 36.4 µM (inactive)

Question: What about the GI50 (SK-MEL-2) of the same molecule?
Answer: > 43 µM (inactive)

Question: What about the GI50 (HOP-62) of the same molecule?
Answer: > 56.9 µM (inactive)

Question: And the GI50 (KM-20L2)?
Answer: > 100 µM (inactive)

Question: And the GI50 (K562)?
Answer: > 51.6 µM (inactive)

Question: What about the GI50 (SNB-75) of the same molecule?
Answer: 29.2 µM (inactive)

Question: And the GI50 (A498)?
Answer: 73.8 µM (inactive)

Question: What about the GI50 (OVCAR-8) of the same molecule?
Answer: > 54.7 µM (inactive)

Question: And the GI50 (T47D)?
Answer: 29.4 µM (inactive)

Question: And the GI50 (HCT-116)?
Answer: > 54.3 µM (inactive)

Question: What about the GI50 (NCI-H226) of the same molecule?
Answer: 48 µM (inactive)

Question: What about the GI50 (DU-145) of the same molecule?
Answer: > 100 µM (inactive)

Question: What about the GI50 (CCRF-CEM) of the same molecule?
Answer: > 46.9 µM (inactive)

Question: What about the GI50 (786-0) of the same molecule?
Answer: > 100 µM (inactive)

Question: What about the GI50 (HCT-15) of the same molecule?
Answer: > 51.1 µM

Question: And the GI50 (CAKI-1)?
Answer: > 100 µM (inactive)

Question: And the GI50 (M14)?
Answer: > 59.6 µM (inactive)

Question: And the GI50 (UACC-62)?
Answer: > 41 µM (inactive)

Question: What about the GI50 (NCI-H460) of the same molecule?
Answer: > 55.6 µM (inactive)

Question: What about the GI50 (COLO 205) of the same molecule?
Answer: > 100 µM (inactive)

Question: What about the GI50 (SF-539) of the same molecule?
Answer: 28.7 µM (inactive)

Question: And the GI50 (HOP-18)?
Answer: > 100 µM (inactive)

Question: What about the GI50 (HCC 2998) of the same molecule?
Answer: 17.7 µM (inactive)

Question: What about the GI50 (MOLT-4) of the same molecule?
Answer: > 83.2 µM (inactive)

Question: What about the GI50 (SF-268) of the same molecule?
Answer: 60.3 µM (inactive)

Question: And the GI50 (SN12C)?
Answer: > 100 µM (inactive)

Question: What about the GI50 (M19-MEL) of the same molecule?
Answer: > 100 µM (inactive)

Question: What about the GI50 (SK-MEL-5) of the same molecule?
Answer: > 38.5 µM (inactive)

Question: What about the GI50 (SR) of the same molecule?
Answer: > 72.8 µM (inactive)

Question: And the GI50 (NCI/ADR-RES)?
Answer: 24.8 µM (inactive)

Question: And the GI50 (MCF7)?
Answer: > 100 µM (inactive)

Question: And the GI50 (MDA-MB-435)?
Answer: 42.6 µM (inactive)

Question: What about the GI50 (XF498) of the same molecule?
Answer: 32.4 µM (inactive)

Question: What about the GI50 (KM12) of the same molecule?
Answer: > 100 µM (inactive)

Question: And the GI50 (IGROV-1)?
Answer: > 69.3 µM (inactive)

Question: What about the GI50 (OVCAR-3) of the same molecule?
Answer: > 55.1 µM (inactive)

Question: What about the GI50 (DMS-273) of the same molecule?
Answer: > 100 µM (inactive)

Question: And the GI50 (EKVX)?
Answer: 34 µM (inactive)

Question: And the GI50 (SW-620)?
Answer: > 100 µM (inactive)

Question: And the GI50 (HOP-92)?
Answer: > 60.8 µM (inactive)

Question: And the GI50 (NCI-H23)?
Answer: > 65.9 µM (inactive)

Question: And the GI50 (SK-OV-3)?
Answer: > 100 µM (inactive)

Question: And the GI50 (BT-549)?
Answer: 11.8 µM (inactive)

Question: What about the GI50 (U-251) of the same molecule?
Answer: 22.5 µM (inactive)

Question: What about the GI50 (LOX IMVI) of the same molecule?
Answer: 38.9 µM (inactive)

Question: What about the GI50 (DMS-114) of the same molecule?
Answer: > 100 µM (inactive)

Question: And the GI50 (PC-3)?
Answer: 76.2 µM (inactive)

Question: What about the GI50 (Malme-3M) of the same molecule?
Answer: > 100 µM (inactive)

Question: What about the GI50 (Hs-578T) of the same molecule?
Answer: 24.4 µM (inactive)

Question: What about the GI50 (NCI-H522) of the same molecule?
Answer: > 48.8 µM (inactive)

Question: And the GI50 (SK-MEL-28)?
Answer: > 100 µM (inactive)

Question: And the GI50 (OVCAR-4)?
Answer: > 47.6 µM (inactive)

Question: What about the GI50 (UO-31) of the same molecule?
Answer: 32.1 µM (inactive)

Question: What about the GI50 (HL-60) of the same molecule?
Answer: > 31.6 µM (inactive)

Question: What about the GI50 (SF-295) of the same molecule?
Answer: 36.1 µM (inactive)

Question: What about the GI50 (LXFL 529) of the same molecule?
Answer: > 100 µM (inactive)

Question: What does the source list for `COC(=O)C(C(=O)C(=O)Nc1ccc(C)cc1)c1nc2ccc([N+](=O)[O-])cc2nc1O` (configuration not stated)?
Answer: GI50 (RXF 393): > 100 µM (inactive); GI50 (OVCAR-5): > 100 µM (inactive); GI50 (UACC-257): > 100 µM (inactive); GI50 (ACHN): > 100 µM (inactive); GI50 (DLD-1): > 100 µM (inactive); GI50 (SNB-19): > 100 µM (inactive); GI50 (SNB-78): > 100 µM (inactive); GI50 (TK-10): > 100 µM (inactive); GI50 (HT-29): > 100 µM (inactive); GI50 (A549): > 100 µM (inactive); GI50 (SK-MEL-2): > 100 µM (inactive); GI50 (HOP-62): > 100 µM (inactive); GI50 (KM-20L2): > 100 µM (inactive); GI50 (K562): 30.1 µM (inactive); GI50 (SNB-75): > 100 µM (inactive); GI50 (A498): > 100 µM (inactive); GI50 (OVCAR-8): > 100 µM (inactive); GI50 (HCT-116): > 100 µM (inactive); GI50 (NCI-H226): > 100 µM (inactive); GI50 (CCRF-CEM): 36.1 µM (inactive); GI50 (786-0): > 100 µM (inactive); GI50 (HCT-15): > 100 µM; GI50 (CAKI-1): > 100 µM (inactive); GI50 (M14): > 100 µM (inactive); GI50 (UACC-62): 85.7 µM (inactive); GI50 (NCI-H460): > 100 µM (inactive); GI50 (COLO 205): 53.5 µM (inactive); GI50 (SF-539): > 100 µM (inactive); GI50 (HOP-18): > 100 µM (inactive); GI50 (HCC 2998): > 100 µM (inactive); GI50 (MOLT-4): 92.9 µM (inactive); GI50 (SF-268): > 100 µM (inactive); GI50 (SN12C): > 100 µM (inactive); GI50 (M19-MEL): > 100 µM (inactive); GI50 (SK-MEL-5): 49.1 µM (inactive); GI50 (SR): > 100 µM (inactive); GI50 (XF498): > 100 µM (inactive); GI50 (KM12): > 100 µM (inactive); GI50 (IGROV-1): > 100 µM (inactive); GI50 (OVCAR-3): > 100 µM (inactive); GI50 (DMS-273): > 100 µM (inactive); GI50 (EKVX): > 100 µM (inactive); GI50 (SW-620): > 100 µM (inactive); GI50 (NCI-H23): > 100 µM (inactive); GI50 (SK-OV-3): > 100 µM (inactive); GI50 (U-251): 37.6 µM (inactive); GI50 (LOX IMVI): > 100 µM (inactive); GI50 (DMS-114): 21.3 µM (inactive); GI50 (Malme-3M): > 100 µM (inactive); GI50 (NCI-H522): 6.93 µM (inactive); GI50 (SK-MEL-28): > 100 µM (inactive); GI50 (OVCAR-4): > 100 µM (inactive); GI50 (UO-31): 66.1 µM (inactive); GI50 (HL-60): 35.6 µM (inactive); GI50 (SF-295): > 100 µM (inactive); GI50 (LXFL 529): 51.6 µM (inactive)
